{
  "source": "patent US10723726B2",
  "about": "“Solid forms of (Z)-4-(5-((3-benzyl-4-oxo-2-thioxothiazolidin-5-ylidene)methyl)furan-2-yl)benzoic acid” (GB006, INC., priority 2015, dated 2020)",
  "key": {"[1]": {"test": "Humidity stress at 40° C./75% RH", "type": "physicochemical", "conditions": "5-6 days", "procedure": "The larger vials were capped, sealed with Parafilm and placed inside an oven at 40° C. for up to 6 days. Salts were then removed from these conditions and changes observed (e.g. color, deliquescence etc.) before being analyzed for weight change and by XRPD. Samples were examined visually after stressing, form composition confirmed by XRPD analysis and weight change recorded (Table 7)."}, "[2]": {"test_system": "murine melanoma B16-F10 tumors", "test": "Murine melanoma B16F10 allograft efficacy (Example 20)", "type": "in vivo, C57BL/6 mice"}, "[3]": {"conditions": "in vivo", "description": "(§1) In a second experiment, the dose solution was prepared in Tween-80 (0.02%) and 0.5% methyl cellulose in Milli-Q water. IP (2 mg/kg) and IV (1 mg/kg) dose solutions were prepared in a 5% DMSO and 95% PEG-200.\n(§2) The PO (2 mg/kg) dose solution was prepared in Tween-80 (0.02%) and 0.5% methyl cellulose in Milli-Q water. The IV (1 mg/kg) dose solution was prepared in a solution of 5% DMSO and 95% PEG-200.\n(§3) The routes of administration were namely PO (gavage), IP (bolus) and IV (bolus through tail vein). A total of four SD male rats were used aged between 5-6 weeks. The feeding regimen included 12 h fasting and the feed was provided 2 hrs after the dosage inoculation and water was provided ad libidum. The blood collection schedule for PO/IP was at 0.25, 0.5, 1, 2, 4, 8, 10 and 24 h, and for IV it was at 0.12, 0.25, 0.5, 1, 2, 4, 8 and 24 h. For PO dosage, tween-80 (0.02%) and 0.5% methyl cellulose prepared in milli-Q water were used as vehicles; for IP and IV dosage 5% DMSO and 95% PEG-200 were used as vehicles.\n(§4) Stock solution (178 μg/mL) in methanol was further diluted using methanol: water (80:20, v/v) to obtain working solutions in the range of 10.4 to 20745 ng/mL.\n(§5) 50 μL of sample was aliquoted in to pre-labeled vials. To it was added 200 μL of 10% tetrahydrofuran containing IS (100 ng/mL; tolbutamide) and mixed well, vortexed for 5 min followed by centrifugation for 5 min at 14000 rpm for at 4° C. Supernatant was separated and 5 μL of same was injected on LC-MS/MS.\n(§6) Data Analysis: Individual concentration-time data were analyzed using WinNonlin (Version 5.3) by non-compartmental analysis (NCA) method.\n(§7) The routes of administration were namely PO (gavage) and IV (bolus through tail vein). A total of four SD male rats were used aged between 5-6 weeks. The feeding regimen included 12 h fasting and the feed was provided 2 hrs after the dosage inoculation and water was provided ad libitum. The blood collection schedule for PO was at 0.25, 0.5, 1, 2, 4, 8, 10 and 24 h, and for IV it was at 0.12, 0.25, 0.5, 1, 2, 4, 8 and 24 h. For PO dosage, tween-80 (0.02%) and 0.5% methyl cellulose prepared in milli-Q water were used as vehicles; for IV dosage 10% DMSO and 90% PEG-200 were used as vehicles."}, "[4]": {"test": "in vivo", "conditions": "male, rat; for half-life: t1/2,ß", "description": "as §1, §2, §3, §4, §5, §6, §7"}, "[5]": {"test": "Rat PK of LA1 free acid, first experiment (2-hydroxypropyl-β-cyclodextrin dose solution)", "type": "in vivo, Sprague Dawley (SD) rats", "conditions": "30% 2-hydroxypropyl-β-cyclodextrin in PBS", "procedure": "In a first experiment, the dose solution was prepared in 30% w:v 2-hydroxypropyl-β-cyclodextrin prepared in PBS at 2 mg/kg. Improved bioavailability was needed."}, "[6]": {"molecular_target": "adenosine A2A receptor (Homo sapiens, UniProt P29274)", "sequence (P29274 whole entry)": "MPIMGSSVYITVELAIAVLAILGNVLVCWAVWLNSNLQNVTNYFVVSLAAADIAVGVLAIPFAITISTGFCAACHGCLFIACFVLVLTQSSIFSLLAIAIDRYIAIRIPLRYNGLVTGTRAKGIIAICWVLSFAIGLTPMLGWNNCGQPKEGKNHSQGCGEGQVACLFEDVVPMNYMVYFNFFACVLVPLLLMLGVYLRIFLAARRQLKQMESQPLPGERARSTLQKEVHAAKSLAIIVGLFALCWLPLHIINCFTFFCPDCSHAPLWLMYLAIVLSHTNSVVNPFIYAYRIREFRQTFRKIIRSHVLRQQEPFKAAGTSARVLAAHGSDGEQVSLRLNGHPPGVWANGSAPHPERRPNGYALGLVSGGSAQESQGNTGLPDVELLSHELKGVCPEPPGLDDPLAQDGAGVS", "test": "Adenosine A2A receptor agonist assay"}, "[7]": {"molecular_target": "T1, glucocorticoid receptor (Homo sapiens, UniProt P04150)", "T1 sequence (P04150 1-777)": "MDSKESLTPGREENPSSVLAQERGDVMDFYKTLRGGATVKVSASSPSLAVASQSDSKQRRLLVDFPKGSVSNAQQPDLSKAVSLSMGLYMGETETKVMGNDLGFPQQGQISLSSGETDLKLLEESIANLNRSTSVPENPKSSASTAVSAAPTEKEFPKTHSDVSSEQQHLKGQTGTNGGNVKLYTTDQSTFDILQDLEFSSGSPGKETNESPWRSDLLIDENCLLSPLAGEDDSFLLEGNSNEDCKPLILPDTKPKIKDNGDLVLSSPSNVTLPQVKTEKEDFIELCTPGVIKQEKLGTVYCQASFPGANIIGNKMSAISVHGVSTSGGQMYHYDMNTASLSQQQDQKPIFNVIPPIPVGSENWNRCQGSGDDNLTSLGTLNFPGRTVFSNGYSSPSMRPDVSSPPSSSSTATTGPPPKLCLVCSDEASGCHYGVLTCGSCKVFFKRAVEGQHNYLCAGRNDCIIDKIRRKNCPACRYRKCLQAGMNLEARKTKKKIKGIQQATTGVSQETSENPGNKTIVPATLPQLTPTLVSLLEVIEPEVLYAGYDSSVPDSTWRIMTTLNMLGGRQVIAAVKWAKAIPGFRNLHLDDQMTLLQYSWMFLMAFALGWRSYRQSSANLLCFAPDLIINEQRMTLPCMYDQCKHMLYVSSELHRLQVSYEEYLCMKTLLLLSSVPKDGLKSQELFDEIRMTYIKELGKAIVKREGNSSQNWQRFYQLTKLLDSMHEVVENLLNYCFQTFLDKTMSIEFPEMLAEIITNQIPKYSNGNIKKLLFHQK", "test": "Glucocorticoid receptor agonist assay"}, "[8]": {"conditions": "mouse, in vivo, po", "excerpt": "Mice were inoculated with B16F10 tumors as described above. Once the tumor volume reached around 45 mm^3, animals were randomized into various groups with 10 animals in all the groups so that the average tumor volume of each group was similar.\nLA1 was combined with a solution containing 5% DMSO, 5% Solutol:ethanol (1:1), 20% Tween20, and 70% N-saline."}, "[9]": {"conditions": "mice; cited from earlier work"}, "[10]": {"conditions": "male, Sprague Dawley, rat, ip, 2 mg/kg"}, "[11]": {"conditions": "male, Sprague-Dawley, rat, ip, 2 mg/kg"}, "[12]": {"conditions": "male, Sprague-Dawley, rat, iv, 1 mg/kg"}, "[13]": {"conditions": "male, Sprague-Dawley, rat, po, 2 mg/kg"}, "[14]": {"conditions": "Sprague Dawley, in vivo, PO 2 mg/kg"}},
  "note": "Entries after “also recorded” stand apart in the source; their conditions may differ. Where a name gives a salt, the structure may show the parent alone. Read-outs that look alike come from different tables or passages of the source.",
  "data": [
    {"smiles": "O=C(O)c1ccc(-c2ccc(/C=C3\\SC(=S)N(Cc4ccccc4)C3=O)o2)cc1", "note": "[LA1 choline salt]", "values": [
      {"measurement": "Weight gain (%)", "setting": "[1]", "value": 8.9, "unit": "%"},
      {"measurement": "XRPD after stressing", "setting": "[1]", "value": "phase change; also recorded: New pattern (Q)"},
      {"measurement": "growth inhibition of B16-F10 tumors as compared to vehicle control", "setting": "[2]; 3-100 mg/kg orally", "value": "43-68%"},
      {"measurement": "tumor volume", "setting": "[2]; 3-100 mg/kg, FIG. 24", "value": "decreased tumor volume in a dose dependent manner"},
      {"measurement": "Rat Cl", "setting": "[3]; male, Sprague Dawley, iv, 1 mg/kg", "value": 17.6, "unit": "mL/min/kg"},
      {"measurement": "Vss", "setting": "[3]; male, Sprague Dawley, rat", "value": 0.73, "unit": "L/kg"},
      {"measurement": "MRT", "setting": "[3]; [10]", "value": 1.02, "unit": "h"},
      {"measurement": "Rat Cl", "setting": "[3]; male, Sprague-Dawley", "value": 18, "unit": "mL/min/kg"},
      {"measurement": "Rat Cl", "setting": "[3]; male, Sprague-Dawley, iv, 1 mg/kg", "value": 17.6, "unit": "mL/min/kg"},
      {"measurement": "% F (absolute IP bioavailability)", "setting": "[3]; male, Sprague-Dawley, rat", "value": 84, "unit": "%"},
      {"measurement": "Vss", "setting": "[3]; male, Sprague-Dawley, rat", "value": 0.73, "unit": "L/kg"},
      {"measurement": "AUC0-t", "setting": "[3]; [11]", "value": 1657, "unit": "ng·h/mL"},
      {"measurement": "AUC0-∞", "setting": "[3]; [11]", "value": 1666, "unit": "ng·h/mL"},
      {"measurement": "MRT", "setting": "[3]; [11]", "value": 1.02, "unit": "h"},
      {"measurement": "Tlast", "setting": "[3]; [11]", "value": 10.0, "unit": "h"},
      {"measurement": "Tmax", "setting": "[3]; [11]", "value": 0.25, "unit": "h"},
      {"measurement": "AUC0-t", "setting": "[3]; [12]", "value": 985, "unit": "ng·h/mL"},
      {"measurement": "AUC0-∞", "setting": "[3]; [12]", "value": 993, "unit": "ng·h/mL"},
      {"measurement": "C0", "setting": "[3]; [12]", "value": 1856, "unit": "ng/mL"},
      {"measurement": "MRT", "setting": "[3]; [12]", "value": 0.72, "unit": "h"},
      {"measurement": "Tlast", "setting": "[3]; [12]", "value": 7.00, "unit": "h"},
      {"measurement": "Vd", "setting": "[3]; [12]", "value": 1.78, "unit": "L/kg"},
      {"measurement": "AUC0-t", "setting": "[3]; [13]", "value": 808, "unit": "ng·h/mL"},
      {"measurement": "AUC0-∞", "setting": "[3]; [13]", "value": 814, "unit": "ng·h/mL"},
      {"measurement": "Tlast", "setting": "[3]; [13]", "value": 10.0, "unit": "h"},
      {"measurement": "bioavailability", "setting": "[4]; Sprague-Dawley, F (absolute oral bioavailability)", "value": 41, "unit": "%"},
      {"measurement": "MRT", "setting": "[4]; Sprague-Dawley, po, 2 mg/kg, MRT", "value": 1.81, "unit": "h"},
      {"measurement": "half-life", "setting": "[4]; Sprague-Dawley, po, 2 mg/kg", "value": 1.57, "unit": "h"},
      {"measurement": "Tmax", "setting": "[4]; Sprague-Dawley, po, 2 mg/kg", "value": 0.5, "unit": "h"}
    ]},
    {"smiles": "O=C(O)c1ccc(-c2ccc(/C=C3\\SC(=S)N(Cc4ccccc4)C3=O)o2)cc1", "note": "[LA1, (Z)-4-(5-((3-benzyl-4-oxo-2-thioxothiazolidin-5-ylidene)methyl)furan-2-yl)benzoic acid]", "values": [
      {"measurement": "Rat Cl", "setting": "[5]; PO - 2 mg/kg table", "value": 11.1, "unit": "mL/min/kg"},
      {"measurement": "Vss", "setting": "[5]; PO - 2 mg/kg table", "value": 0.59, "unit": "L"},
      {"measurement": "AUC", "setting": "[5]; [14]", "value": 8.7, "unit": "µM·h"},
      {"measurement": "MRT", "setting": "[5]; [14]", "value": 3.49, "unit": "h"},
      {"measurement": "half-life", "setting": "[5]; [14]", "value": 2.03, "unit": "h"},
      {"measurement": "bioavailability", "setting": "[5]; Sprague Dawley, in vivo, PO 2 mg/kg, read-out: Rat F %", "value": 15.1, "unit": "%"},
      {"measurement": "efficacy in adenosine A2A receptor agonist assay", "setting": "[6]", "value": "shown efficacy"},
      {"measurement": "efficacy in glucocorticoid receptor agonist assay", "setting": "[7]", "value": "shown efficacy"},
      {"measurement": "Rat F %", "setting": "[3]; po, 2 mg/kg", "value": "Exposure too low"},
      {"measurement": "Vss", "setting": "[3]; male, Sprague Dawley, rat", "value": 4.19, "unit": "L/kg"},
      {"measurement": "MRT", "setting": "[3]; [10]", "value": 3.44, "unit": "h"},
      {"measurement": "Vss", "setting": "[3]; male, Sprague-Dawley, rat", "value": 4.19, "unit": "L/kg"},
      {"measurement": "AUC0-t", "setting": "[3]; [11]", "value": 1481, "unit": "ng·h/mL"},
      {"measurement": "AUC0-∞", "setting": "[3]; [11]", "value": 1499, "unit": "ng·h/mL"},
      {"measurement": "MRT", "setting": "[3]; [11]", "value": 3.44, "unit": "h"},
      {"measurement": "Tlast", "setting": "[3]; [11]", "value": 20.5, "unit": "h"},
      {"measurement": "C0", "setting": "[3]; [12]", "value": 1317, "unit": "ng/mL"},
      {"measurement": "MRT", "setting": "[3]; [12]", "value": 3.38, "unit": "h"},
      {"measurement": "Tlast", "setting": "[3]; [12]", "value": 20.0, "unit": "h"},
      {"measurement": "MRT (hr)", "setting": "[3]; rat, po, 2 mg/kg", "value": "Exposure too low"},
      {"measurement": "exposure in blood at end of study", "setting": "[8]", "value": "below the limit of quantitation"},
      {"measurement": "exposure in tumor at end of study", "setting": "[8]", "value": "below the limit of quantitation"},
      {"measurement": "renal ischemia/reperfusion injury", "setting": "[9]", "value": "reduce renal ischemia/reperfusion injury"},
      {"measurement": "clearance", "setting": "[4]; Sprague Dawley, iv, 1 mg/kg, Rat Cl (ml/min/kg)", "value": 19.7, "unit": "mL/min/kg"},
      {"measurement": "bioavailability", "setting": "[4]; Sprague-Dawley, % F (absolute IP bioavailability)", "value": 82, "unit": "%"},
      {"measurement": "clearance", "setting": "[4]; Sprague-Dawley, Rat Cl (ml/min/kg)", "value": 20, "unit": "mL/min/kg"},
      {"measurement": "bioavailability", "setting": "[4]; Sprague-Dawley, ip, 2 mg/kg, % F (absolute IP bioavailability)", "value": 81.6, "unit": "%"},
      {"measurement": "AUC", "setting": "[4]; Sprague-Dawley, ip, 2 mg/kg, AUC in mM*hr", "value": 3.5, "unit": "µM·h"},
      {"measurement": "Tmax", "setting": "[4]; Sprague-Dawley, ip, 2 mg/kg", "value": 0.25, "unit": "h"},
      {"measurement": "AUC0-t", "setting": "[4]; Sprague-Dawley, iv, 1 mg/kg, AUC0-t", "value": 903, "unit": "ng·h/mL"},
      {"measurement": "AUC(0-inf)", "setting": "[4]; Sprague-Dawley, iv, 1 mg/kg, AUC0-∞", "value": 918, "unit": "ng·h/mL"},
      {"measurement": "clearance", "setting": "[4]; Sprague-Dawley, iv, 1 mg/kg, CL", "value": 19.7, "unit": "mL/min/kg"},
      {"measurement": "Cmax", "setting": "[4]; Sprague-Dawley, iv, 1 mg/kg, Cmax", "value": 952, "unit": "ng/mL"},
      {"measurement": "clearance", "setting": "[4]; Sprague-Dawley, iv, 1 mg/kg, Rat Cl (ml/min/kg)", "value": 19.7, "unit": "mL/min/kg"},
      {"measurement": "Vd", "setting": "[4]; Sprague-Dawley, iv, 1 mg/kg, Vd", "value": 2.39, "unit": "L/kg"},
      {"measurement": "half-life", "setting": "[4]; Sprague-Dawley, iv, 1 mg/kg", "value": 1.16, "unit": "h"}
    ]}
  ]
}
